From patent US8557866B2, “Isomeric mixtures of dinitro-octylphenyl esters and synergistic fungicidal mixtures therefrom” (Dow AgroSciences, LLC., priority 2007, dated 2013)

What was measured:
[1] = tested on: Erysiphe cichoracearum (ERYSCI); assay: High volume spray greenhouse test, 1 day protectant, cucumber powdery mildew; format: in vivo, Erysiphe cichoracearum on cucumbers; settings: rate 200 ppm
Protocol: (§1) The composition of Example 1 was evaluated for fungicidal efficacy in a greenhouse on 9 diseases caused by plant pathogenic fungi (TABLE II). The plant cultivars used in this study were Ugni Blanc (grape), Bovowinka (crab apple), HH88 (sugar beet), M-9 (rice) and Yuma (wheat). Broad leaf plants and rice were grown in a soil-less peat-based potting mixture (Metromix), and wheat was grown in a 50/50 mix of mineral soil and Metromix. The wheat was grown at a temperature of 20° C. and all the other plants were grown at 25° C. Apple seeds were soaked in water, incubated for a short time in 200 ppm solution of benlate and washed again with water. The moist seeds were stored in a closed container at 7° C. (45° F.) and washed once a week with water until the radical had emerged 3 mm (approximately 30 days). The seeds were then planted and seedlings with 4-6 leaves were typically ready for inoculation 3 weeks later.
(§2) The composition of Example 1 was applied to seedlings at 100, 50, 25, and 12.5 ppm using a high volume spray application. The composition was formulated in water and serial dilutions made and then brought up to volume by adding water solution. […] Plants were evaluated for percent disease incidence 7-14 days after inoculation and the average percent disease control determined. […]

[2] = tested on: Puccinia recondita (PUCCRT); assay: High volume spray greenhouse test, 1 day protectant, wheat brown rust; format: in vivo, Puccinia recondita on wheat
Protocol: as §1
The composition of Example 1 was applied to seedlings at 100, 50, 25, and 12.5 ppm using a high volume spray application. The composition was formulated in water and serial dilutions made and then brought up to volume by adding water solution. Plants were sprayed to run off with 15 mL of solution on a turn-table sprayer with two opposing 4JAUPM air atomization nozzles (Spraying Systems) at a pressure of 138 kPa. Volume of spray solution on a per hectare basis is approximately 4000 L/ha. Plants were inoculated with the pathogens 1 day after application of the composition of Example 1 (1 day protectant test), incubated in a dew chamber for 24 hours with 100 percent relative humidity and then moved to an appropriate environment for disease expression for the duration of the test. Three replicate pots were sprayed for each pathogen/composition combination. Plants were evaluated for percent disease incidence 7-14 days after inoculation and the average percent disease control determined.
(§3) Plants were inoculated with various pathogens 1 day after application of the composition of EXAMPLES 1, 4-5 (protectant tests) and 2 days before application for EXAMPLES 6-7 (curative tests). For all wheat trials, compositions were applied at growth stage 1.2, when the second leaf was expanded to ½ of its final size (12 days after seeds were first watered). Information on the growth stages of other plant species at the time composition application and on the propagation and inoculation procedures associated with each pathogen is given below.
(§4) PUCCRT: Spores of the obligate pathogen PUCCRT were collected from infected plants with a vacuum apparatus and stored at 4° C. Approximately 0.1 g of fresh spores (stored at 4° C. for less than 30 days) was mixed with several drops of Tween 20. The thick spore paste was diluted to 100 ml with water and sprayed to run-off on wheat seed seedlings. Plants inoculated with PUCCRT were kept in a 20° C. dew chamber overnight and then transferred to a 20° C. growth chamber where symptoms developed in 8-9 days.

PYRIOR = format: in vivo, PYRIOR on rice; settings: rate 200 ppm, high volume test
[3] = tested on: Erysiphe graminis f.sp tritici (ERYSGT); assay: High volume spray greenhouse test, 1 day protectant, wheat powdery mildew; format: in vivo, Erysiphe graminis f.sp tritici on wheat
Protocol: as §1, §2

[4] = tested on: Uncinula necator (UNCINE); assay: High volume spray greenhouse test, 1 day protectant, grape powdery mildew; format: in vivo, Uncinula necator on grapes
[5] = tested on: Venturia inaequalis (VENTIN); assay: High volume spray greenhouse test, 1 day protectant, apple scab; format: in vivo, Venturia inaequalis on apple
[6] = tested on: wheat brown rust (PUCCRT); assay: Synergy test (Colby), 1 day protectant glasshouse studies against wheat brown rust; format: in vivo, Puccinia recondita on wheat; settings: alone, PUCCRT 1 day protectant
Text: as §3, §4
A synergistic effect exists whenever the action of an active ingredient combination is greater than the sum of the action of the individual components.
The action to be expected E for a given active ingredient combination obeys the so-called COLBY formula and can be calculated as follows (COLBY, S. R. “Calculating synergistic and antagonistic responses of herbicide combination”. Weeds, Vol. 15, pages 20-22; 1967)
X=percent action by active ingredient I using p ppm of active ingredient
Y=percent action by active ingredient II using q ppm of active ingredient
According to Colby the expected additive action of active ingredients I+II using p+q ppm of active ingredients is E=X+Y−(X*Y)/100
If the action actual observed (O) is greater than the expected action (E), then the action of the combination is super additive, that is, there is a synergistic effect.
Protectant activity of combinations against wheat brown rust (PUCCRT).
1 day protectant glasshouse studies.

[7] = tested on: wheat powdery mildew (ERYSGT); assay: Synergy test (Colby), 2 day curative glasshouse studies against wheat powdery mildew; format: in vivo, Erysiphe graminis f.sp tritici on wheat; settings: alone, ERYSGT 2 day curative

Q: `C/C=C/C(=O)Oc1c(C(C)CCCCCC)cc([N+](=O)[O-])cc1[N+](=O)[O-]` (centres unmarked) [Ex. 1, 2,4-dinitro-6-(1-methylheptyl)phenyl crotonate] was tested. Which Percent disease control [1] did it give?
A: ** (** is 50-79 percent control of disease)

Q: And the Percent disease control ([2]; PUCCRT, rate 200 ppm, high volume test)?
A: *** (*** is 80-100 percent control of disease)

Q: What about the “Percent Disease Control PUCCRT” value ([2]; rate 12.5 ppm) of the same compound?
A: * (* is 0-49 percent control of disease)

Q: What about the “Percent Disease Control PUCCRT” value ([2]; rate 25 ppm) of the same compound?
A: * (* is 0-49 percent control of disease)

Q: And the “Percent Disease Control PUCCRT” value ([2]; rate 50 ppm)?
A: ** (** is 50-79 percent control of disease)

Q: And the “Percent Disease Control PUCCRT” value ([2]; rate 100 ppm)?
A: *** (*** is 80-100 percent control of disease)

Q: What about the Percent disease control (PYRIOR) of the same compound?
A: *** (*** is 80-100 percent control of disease)

Q: And the “Percent Disease Control ERYSGT” value ([3]; rate 50 ppm)?
A: *** (*** is 80-100 percent control of disease)

Q: And the “Percent Disease Control ERYSGT” value ([3]; rate 100 ppm)?
A: *** (*** is 80-100 percent control of disease)

Q: What about the “Percent Disease Control UNCINE” value ([4]; rate 12.5 ppm) of the same compound?
A: *** (*** is 80-100 percent control of disease)

Q: And the “Percent Disease Control UNCINE” value ([4]; rate 25 ppm)?
A: *** (*** is 80-100 percent control of disease)

Q: And the “Percent Disease Control UNCINE” value ([4]; rate 50 ppm)?
A: *** (*** is 80-100 percent control of disease)

Q: What about the “Percent Disease Control UNCINE” value ([4]; rate 100 ppm) of the same compound?
A: *** (*** is 80-100 percent control of disease)

Q: And the “Percent Disease Control VENTIN” value ([5]; rate 12.5 ppm)?
A: ** (** is 50-79 percent control of disease)

Q: What about the “Percent Disease Control VENTIN” value ([5]; rate 25 ppm) of the same compound?
A: ** (** is 50-79 percent control of disease)

Q: What about the “Percent Disease Control VENTIN” value ([5]; rate 50 ppm) of the same compound?
A: ** (** is 50-79 percent control of disease)

Q: What about the “Percent Disease Control VENTIN” value ([5]; rate 100 ppm) of the same compound?
A: *** (*** is 80-100 percent control of disease)

Q: And the “Observed Percent CONTROL” value ([6]; 12.50 ppm)?
A: 0.00%

Q: And the “Observed Percent CONTROL” value ([6]; 25.00 ppm)?
A: 11.76%

Q: And the “Observed Percent CONTROL” value ([6]; 50.00 ppm)?
A: 33.33%

Q: And the “Observed Percent CONTROL” value ([6]; 75.00 ppm)?
A: 68.63%

Q: What about the “Observed Percent CONTROL” value ([7]; 75 ppm) of the same compound?
A: 23.00%

Q: With `CCCCC(C#N)(Cn1cncn1)c1ccc(Cl)cc1` (centres unmarked) [Myclobutanil, myclobutanil] as the compound, how does the “Observed Percent CONTROL” value ([6]; 3.13 ppm) read?
A: 0.00%

Q: And the “Observed Percent CONTROL” value ([6]; 6.25 ppm)?
A: 27.45%

Q: And the “Observed Percent CONTROL” value ([6]; 12.50 ppm)?
A: 74.51%

Q: What about the “Observed Percent CONTROL” value ([6]; 18.75 ppm) of the same compound?
A: 84.31%

Q: Which “Observed Percent CONTROL” value ([6]; 25.00 ppm) does the source give for mancozeb here?
A: 0.00%

Q: And the “Observed Percent CONTROL” value ([6]; 50.00 ppm)?
A: 5.88%

Q: And the “Observed Percent CONTROL” value ([6]; 100.00 ppm)?
A: 58.82%

Q: What about the “Observed Percent CONTROL” value ([6]; 200.00 ppm) of the same compound?
A: 88.24%

Q: For `CO/C=C(/C(=O)OC)c1ccccc1Oc1cc(Oc2ccccc2C#N)ncn1` [Azoxystrobin, azoxystrobin], which “Percent Disease Control UNCINE” value ([4]; rate 25 ppm) is on record?
A: *** (*** is 80-100 percent control of disease)

Q: What about the “Observed Percent CONTROL” value ([7]; 6.25 ppm) of the same compound?
A: 13.00%

Q: What about the “Observed Percent CONTROL” value ([7]; 12.50 ppm) of the same compound?
A: 15.00%

Q: And the “Observed Percent CONTROL” value ([7]; 25 ppm)?
A: 15%

Q: And the “Observed Percent CONTROL” value ([7]; 75 ppm)?
A: 52%

Q: What about the “Observed Percent CONTROL” value ([7]; 100 ppm) of the same compound?
A: 79%

Q: `OC(c1ccc(Cl)cc1)(c1cncnc1)c1ccccc1Cl` (centres unmarked) [Fenarimol, fenarimol, reference compound] was tested. Which “Percent Disease Control VENTIN” value ([5]; rate 25 ppm) did it give?
A: *** (*** is 80-100 percent control of disease)

Q: How did the “Observed Percent CONTROL” value ([7]; 12.50 ppm) turn out when `CCCN(CC)CC1COC2(CCC(C(C)(C)C)CC2)O1` (centres unmarked) [Spiroxamine, spiroxamine] was run?
A: 15.00%
